The values that follow come from PubChem BioAssay (NCI).

Among the test systems are COLO 205 colon; LOX IMVI melanoma; NCI-H23 lung; NCI-H522 lung; OVCAR-8 ovarian; SF-295 CNS; SK-MEL-5 melanoma; SW-620 colon; UACC-257 melanoma; UO-31 renal.
What all share (experiment): DTP human tumour cell line panel, 48 h

Molecules are shown by their SMILES.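 Values below derive from 48-hour exposures of cells grown in 96-well plates, with endpoints linearly interpolated between the two concentrations bracketing the appropriate inhibition level. At the GI50, growth is halved. At the TGI there is no net growth.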

As to `Oc1ccc(N=Nc2ccc(Cl)cc2)cc1`, the TGI stood at 33.4 µM in the assay with COLO 205 colon; 24.6 µM in the assay with LOX IMVI melanoma; 32.3 µM with NCI-H23 lung; 25 µM with NCI-H522 lung; 38.2 µM with OVCAR-8 ovarian; 34.6 µM in the assay with SF-295 CNS. In addition, the TGI with SK-MEL-5 melanoma is 24.1 µM; in the assay with SW-620 colon, more than 100 µM; with UACC-257 melanoma, 31.5 µM; in the assay with UO-31 renal, 27.7 µM.

With `COc1ccc(-c2c(C3=NCCN3)nnn2-c2ccccc2)cc1`, the total growth inhibition concentration (TGI) with COLO 205 colon, in the assay on LOX IMVI melanoma, in the assay with NCI-H23 lung, in the assay on NCI-H522 lung, in the assay with OVCAR-8 ovarian and with SF-295 CNS was more than 100 µM throughout. Moreover, the TGI in the assay with SK-MEL-5 melanoma, in the assay with SW-620 colon, in the assay with UACC-257 melanoma and in the assay on UO-31 renal was more than 100 µM throughout.

On to `CC(=O)O/N=C/c1ncccc1CO`, for which the TGI in the assay on COLO 205 colon, in the assay with LOX IMVI melanoma, in the assay with NCI-H23 lung, in the assay on NCI-H522 lung, with OVCAR-8 ovarian and in the assay on SF-295 CNS was more than 100 µM in each case. Besides, the TGI with SK-MEL-5 melanoma, in the assay on SW-620 colon, in the assay on UACC-257 melanoma and in the assay with UO-31 renal was more than 100 µM throughout.

In the case of `COc1ccc(/C=C/c2cc(OC)c(OC)c(OC)c2)cc1NC(=O)/C=C/c1ccc(F)cc1`, the GI50 was 2430 nM in the assay on COLO 205 colon; 6.15 µM in the assay on LOX IMVI melanoma; 3.41 µM in the assay on NCI-H23 lung; 1870 nM in the assay with NCI-H522 lung; 3.37 µM in the assay with OVCAR-8 ovarian; 1570 nM in the assay with SF-295 CNS. Besides, the GI50 in the assay on SK-MEL-5 melanoma is 2720 nM; with SW-620 colon it was 2850 nM; in the assay with UACC-257 melanoma, 3.02 µM; in the assay with UO-31 renal, 2300 nM. The TGI was 6.71 µM with COLO 205 colon; more than 100 µM in the assay with LOX IMVI melanoma; more than 100 µM in the assay with NCI-H23 lung; 5.73 µM in the assay with NCI-H522 lung; more than 100 µM in the assay with OVCAR-8 ovarian; 64.4 µM with SF-295 CNS. In addition, the TGI in the assay with SK-MEL-5 melanoma, with SW-620 colon, with UACC-257 melanoma and with UO-31 renal was more than 100 µM in each case.

Take `COc1cc(/C=C/c2cc(C(F)(F)F)[nH]c(=O)n2)ccc1OCc1ccccc1F`: the GI50 in the assay on COLO 205 colon was 19100 nM; in the assay with LOX IMVI melanoma it was 8.57 µM; in the assay with NCI-H23 lung, 10.5 µM; in the assay with NCI-H522 lung, 5620 nM; in the assay with OVCAR-8 ovarian, 8.85 µM; with SF-295 CNS, 5070 nM. In addition, the GI50 was 6970 nM with SK-MEL-5 melanoma, 7970 nM in the assay with SW-620 colon, 7.51 µM in the assay with UACC-257 melanoma and 13000 nM in the assay with UO-31 renal. The TGI in the assay with COLO 205 colon was determined as 33.9 µM; in the assay with LOX IMVI melanoma, 22 µM; in the assay on NCI-H23 lung, 31.9 µM; in the assay on NCI-H522 lung, 20.4 µM; in the assay on OVCAR-8 ovarian, 48.8 µM; with SF-295 CNS, 22 µM. In addition, the total growth inhibition concentration (TGI) turned out to be 20.2 µM in the assay with SK-MEL-5 melanoma, 28.3 µM in the assay with SW-620 colon, 31.3 µM in the assay on UACC-257 melanoma and 29.4 µM in the assay with UO-31 renal.

As for `CCCCC#COP(=O)(OCC)OCC`, the TGI in the assay with COLO 205 colon, with LOX IMVI melanoma, with NCI-H23 lung, in the assay with NCI-H522 lung, in the assay with OVCAR-8 ovarian and in the assay with SF-295 CNS was more than 100 µM throughout. Moreover, the TGI in the assay with SK-MEL-5 melanoma, with SW-620 colon, in the assay on UACC-257 melanoma and with UO-31 renal was more than 100 µM throughout.

With `O=C(Nc1ccccc1)c1ccc(Cl)c([N+](=O)[O-])c1`, the TGI in the assay on COLO 205 colon was 70 µM; in the assay with LOX IMVI melanoma it was more than 100 µM; with NCI-H23 lung, 63.6 µM; in the assay on NCI-H522 lung it was 32 µM; with OVCAR-8 ovarian it was 39.6 µM; with SF-295 CNS, more than 100 µM. Further, the total growth inhibition concentration (TGI) in the assay on SK-MEL-5 melanoma was 20 µM; in the assay with SW-620 colon it was 34 µM; in the assay with UACC-257 melanoma, 48.4 µM; with UO-31 renal, more than 100 µM.

On to `O=[N+]([O-])c1ccc2[nH]cc(-c3c4ccsc4cc4[nH]c5ccc([N+](=O)[O-])cc5c34)c2c1`, for which the GI50 with COLO 205 colon is 796 nM; with LOX IMVI melanoma, 0.834 µM; in the assay with NCI-H23 lung it was 1.21 µM; with NCI-H522 lung, 423 nM; with OVCAR-8 ovarian it was 1.25 µM; in the assay with SF-295 CNS it was 629 nM. Also, the concentration for 50% growth inhibition (GI50) is 394 nM with SK-MEL-5 melanoma, 1070 nM in the assay with SW-620 colon, 2.92 µM in the assay on UACC-257 melanoma and 827 nM with UO-31 renal. Further, the TGI came to 2.42 µM in the assay with COLO 205 colon; 5.48 µM in the assay on LOX IMVI melanoma; 5.62 µM in the assay on NCI-H23 lung; 3.42 µM in the assay with NCI-H522 lung; 19.7 µM with OVCAR-8 ovarian; 3.09 µM in the assay on SF-295 CNS. Also, the concentration for total growth inhibition (TGI) with SK-MEL-5 melanoma stood at 2.01 µM; with SW-620 colon it was 8.37 µM; with UACC-257 melanoma, 10.5 µM; in the assay on UO-31 renal, 5.14 µM.

On to `CC1=CSC2=NC(c3ccc(Cl)c(Cl)c3)=CC(c3ccc(Cl)cc3)N12` (configuration not stated), for which the GI50 is more than 100000 nM in the assay on COLO 205 colon; more than 100 µM with LOX IMVI melanoma; more than 100 µM in the assay on NCI-H23 lung; more than 100000 nM in the assay with NCI-H522 lung; more than 100 µM in the assay with OVCAR-8 ovarian; more than 100000 nM in the assay on SF-295 CNS. Further, the GI50 in the assay on SK-MEL-5 melanoma is more than 100000 nM; with SW-620 colon, more than 100000 nM; in the assay on UACC-257 melanoma, more than 100 µM; in the assay on UO-31 renal, more than 100000 nM. The TGI in the assay on COLO 205 colon, in the assay with LOX IMVI melanoma, with NCI-H23 lung, with NCI-H522 lung, in the assay on OVCAR-8 ovarian and in the assay on SF-295 CNS was more than 100 µM in each case. The TGI in the assay with SK-MEL-5 melanoma, in the assay with SW-620 colon, with UACC-257 melanoma and with UO-31 renal was more than 100 µM in each case.

In the case of `CCCCCCNC(=O)C1=C(C)NC(C)=C(C(=O)NCCCCCC)C1`, the TGI in the assay with COLO 205 colon, in the assay on LOX IMVI melanoma, in the assay on NCI-H23 lung, in the assay on NCI-H522 lung, in the assay with OVCAR-8 ovarian and with SF-295 CNS was more than 100 µM throughout. The TGI in the assay on SK-MEL-5 melanoma, in the assay with SW-620 colon, in the assay on UACC-257 melanoma and with UO-31 renal was more than 100 µM throughout.

For the molecule `COc1cc2c(cc1OCc1ccccc1)N=C[C@@H]1C/C(=C/C(=O)NCCCN3C(=O)c4cccc5cccc(c45)C3=O)CN1C2=O`, the GI50 in the assay on COLO 205 colon was 1560 nM; with LOX IMVI melanoma, 0.277 µM; in the assay with NCI-H23 lung, 0.352 µM; in the assay on NCI-H522 lung, 228 nM; with OVCAR-8 ovarian, 1.22 µM; in the assay with SF-295 CNS, 630 nM. The GI50 in the assay with SK-MEL-5 melanoma is 1040 nM; in the assay on SW-620 colon, 284 nM; in the assay on UACC-257 melanoma, 2.26 µM; in the assay on UO-31 renal it was 2680 nM. For the same molecule, the TGI in the assay on COLO 205 colon was 4.81 µM; in the assay on LOX IMVI melanoma, more than 35.8 µM; in the assay on NCI-H23 lung it was 1.89 µM; in the assay on SF-295 CNS, 9.49 µM; in the assay with SK-MEL-5 melanoma, 3.33 µM; in the assay on SW-620 colon it was 15.5 µM. The TGI with UO-31 renal is more than 20.7 µM.

In the case of `COc1ccc2c(c1)C(=O)CC(N)C2` (configuration not stated), the TGI in the assay on COLO 205 colon, with LOX IMVI melanoma, in the assay on NCI-H23 lung, with NCI-H522 lung, in the assay with OVCAR-8 ovarian and in the assay on SF-295 CNS was more than 100 µM in each case. Also, the TGI with SK-MEL-5 melanoma, in the assay with SW-620 colon, in the assay with UACC-257 melanoma and in the assay on UO-31 renal was more than 100 µM in each case.

As for `COc1cc(OC2OC(C)C(O)C(O)C2O)cc2oc(-c3ccc(O)cc3)c(CC=C(C)C)c(=O)c12` (configuration not stated), the GI50 is 10000 nM in the assay with COLO 205 colon; 10.4 µM with LOX IMVI melanoma; 18.6 µM in the assay on NCI-H23 lung; 13000 nM in the assay with NCI-H522 lung; 32.3 µM with OVCAR-8 ovarian; 33900 nM in the assay with SF-295 CNS. Further, the GI50 with SK-MEL-5 melanoma was 13600 nM; in the assay with SW-620 colon it was 19700 nM; in the assay on UACC-257 melanoma, 29.6 µM; in the assay with UO-31 renal, 16200 nM. The TGI in the assay on COLO 205 colon was 22.1 µM; in the assay on LOX IMVI melanoma, 23 µM; with NCI-H23 lung, 47.4 µM; in the assay on NCI-H522 lung, 39.8 µM; in the assay on OVCAR-8 ovarian it was more than 100 µM; in the assay with SF-295 CNS, more than 100 µM. Also, the TGI in the assay with SK-MEL-5 melanoma came to 30.9 µM; with SW-620 colon it was 44 µM; with UACC-257 melanoma, 68.4 µM; in the assay with UO-31 renal, 64.6 µM.

The TGI is the concentration giving total growth inhibition. What is called GI50 is the concentration giving 50% growth inhibition.
